Earlier results in US4699782A (Delalande S.A., priority 1983, dated 1987).

Conditions: human, in vivo; cited from earlier work

C#CCN(C)CCCOc1ccc(Cl)cc1Cl [Clorgyline]
dose of Tyramine from which hypertensive effects were recorded: ≥ 6 mg
